Paper PMC8640094, “Diaportones A–C: Three New Metabolites From Endophytic Fungus Diaporthe foeniculina BZM-15” (Frontiers in Chemistry, 2021)
Several values for one entry are separate records, joined by “and”; a condition that tells them apart may be missing. Equal entries are not always repeated.

What was measured:
SF-268 (CNS cancer) = test: MTT cytotoxicity assay, SF-268 cells; type: cell-based, human; conditions: for cell inhibition: SF268 cells, listed as Comp.5
How it was run: (§1)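 Cells seeded at 5 × 10^4 cells/ml, grown 24 h at 37 °C/5% CO2, then exposed to compounds for 72 h. Viability by MTT, formazan dissolved in DMSO, absorbance at 490 nm; IC50 derived from OD.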

normal cell line LX-2 = test: MTT cytotoxicity assay, normal cell line LX-2; type: cell-based; conditions: for cell inhibition: listed as Comp.5
How it was run: (§2)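 Cells seeded at 5 × 10^4 cells/ml, grown 24 h at 37 °C, 5% CO2, then exposed to compounds for 72 h. Viability by MTT, formazan dissolved in DMSO and OD read at 490 nm; IC50 calculated from OD.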

MCF-7 (breast cancer) = test: MTT cytotoxicity assay, MCF-7 cells; type: cell-based, human; conditions: for cell inhibition: listed as Comp.5
How it was run: as §2

HepG2 (hepatoma cancer) = test: MTT cytotoxicity assay, HepG2 cells; type: cell-based, human; conditions: for cell inhibition: listed as Comp.5
How it was run: as §1

[1] = LX-2, c 1.00 μM, three replicates
[2] = LX-2, c 2.00 μM, three replicates
[3] = LX-2, c 4.00 μM, three replicates
[4] = LX-2, c 8.00 μM, three replicates
[5] = LX-2, c 16.00 μM, three replicates
[6] = LX-2, c 32.00 μM, three replicates
[7] = LX-2, c 64.00 μM, three replicates
[8] = LX-2, c 128.00 μM, three replicates

Q: Which results are given for `CC(C)C12CC1C(C)(O)CC2=O` (centres unmarked) [compound 5, diaportone C]?
A: inhibition at 1 µM (SF-268 (CNS cancer); Homo sapiens, SF-268, SF268 cells, c 1.00 μM, triplicate values, read-out: cell inhibition): 6.47%; inhibition at 2 µM (SF-268 (CNS cancer); Homo sapiens, SF-268, SF268 cells, c 2.00 μM, triplicate values, read-out: cell inhibition): 15.7%; inhibition at 4 µM (SF-268 (CNS cancer); Homo sapiens, SF-268, SF268 cells, c 4.00 μM, triplicate values, read-out: cell inhibition): 22.9%; inhibition at 8 µM (SF-268 (CNS cancer); Homo sapiens, SF-268, SF268 cells, c 8.00 μM, triplicate values, read-out: cell inhibition): 22.1%; inhibition at 16 µM (SF-268 (CNS cancer); Homo sapiens, SF-268, SF268 cells, c 16.00 μM, triplicate values, read-out: cell inhibition): 27.1%; inhibition at 32 µM (SF-268 (CNS cancer); Homo sapiens, SF-268, SF268 cells, c 32.00 μM, triplicate values, read-out: cell inhibition): 31.9%; inhibition at 64 µM (SF-268 (CNS cancer); Homo sapiens, SF-268, SF268 cells, c 64.00 μM, triplicate values, read-out: cell inhibition): 67.2%; inhibition at 128 µM (SF-268 (CNS cancer); Homo sapiens, SF-268, SF268 cells, c 128.00 μM, triplicate values, read-out: cell inhibition): 72.8%; IC50 (SF-268 (CNS cancer); Homo sapiens, SF-268, MTT, 72 h, mean ± SD (n = 3), read-out: IC50 SF268): > 40 µM; cell inhibition (SF-268 (CNS cancer); c 1.00 μM, triplicate values): 6.8% and 6.81%; cell inhibition (SF-268 (CNS cancer); c 2.00 μM, triplicate values): 13.52% and 13.37%; cell inhibition (SF-268 (CNS cancer); c 4.00 μM, triplicate values): 23.4% and 24.41%; cell inhibition (SF-268 (CNS cancer); c 8.00 μM, triplicate values): 23.23% and 26.17%; cell inhibition (SF-268 (CNS cancer); c 16.00 μM, triplicate values): 25.97% and 27.9%; cell inhibition (SF-268 (CNS cancer); c 32.00 μM, triplicate values): 33.15% and 30.82%; cell inhibition (SF-268 (CNS cancer); c 64.00 μM, triplicate values): 67.13% and 67.17%; cell inhibition (SF-268 (CNS cancer); c 128.00 μM, triplicate values): 70.54% and 72.29%; inhibition at 1 µM (normal cell line LX-2; [1]): 11.1%; cell inhibition (normal cell line LX-2; [1]): 11.45% and 12.45%; inhibition at 2 µM (normal cell line LX-2; [2]): 13.5%; cell inhibition (normal cell line LX-2; [2]): 13.52% and 12.56%; inhibition at 4 µM (normal cell line LX-2; [3]): 23.6%; cell inhibition (normal cell line LX-2; [3]): 24.13% and 24.41%; inhibition at 8 µM (normal cell line LX-2; [4]): 30.1%; cell inhibition (normal cell line LX-2; [4]): 32.44% and 30.6%; inhibition at 16 µM (normal cell line LX-2; [5]): 31.7%; cell inhibition (normal cell line LX-2; [5]): 33.08% and 32.3%; inhibition at 32 µM (normal cell line LX-2; [6]): 46.6%; cell inhibition (normal cell line LX-2; [6]): 43.56% and 46.07%; inhibition at 64 µM (normal cell line LX-2; [7]): 70.3%; cell inhibition (normal cell line LX-2; [7]): 71.68% and 70.2%; inhibition at 128 µM (normal cell line LX-2; [8]): 89.2%; cell inhibition (normal cell line LX-2; [8]): 89.22% and 90.45%; IC50 (normal cell line LX-2; MTT, 72 h, mean ± SD (n = 3)): > 40 µM; inhibition at 1 µM (MCF-7 (breast cancer); Homo sapiens, MCF7, MCF-7, c 1.00 μM, three replicates, read-out: cell inhibition): 8.13%; inhibition at 2 µM (MCF-7 (breast cancer); Homo sapiens, MCF7, MCF-7, c 2.00 μM, three replicates, read-out: cell inhibition): 15.1%; inhibition at 4 µM (MCF-7 (breast cancer); Homo sapiens, MCF7, MCF-7, c 4.00 μM, three replicates, read-out: cell inhibition): 21.1%; inhibition at 8 µM (MCF-7 (breast cancer); Homo sapiens, MCF7, MCF-7, c 8.00 μM, three replicates, read-out: cell inhibition): 28.2%; inhibition at 16 µM (MCF-7 (breast cancer); Homo sapiens, MCF7, MCF-7, c 16.00 μM, three replicates, read-out: cell inhibition): 33.4%; inhibition at 32 µM (MCF-7 (breast cancer); Homo sapiens, MCF7, MCF-7, c 32.00 μM, three replicates, read-out: cell inhibition): 41.7%; inhibition at 64 µM (MCF-7 (breast cancer); Homo sapiens, MCF7, MCF-7, c 64.00 μM, three replicates, read-out: cell inhibition): 54.1%; inhibition at 128 µM (MCF-7 (breast cancer); Homo sapiens, MCF7, MCF-7, c 128.00 μM, three replicates, read-out: cell inhibition): 70.1%; IC50 (MCF-7 (breast cancer); Homo sapiens, MCF7, MTT, 72 h, mean ± SD (n = 3)): > 40 µM; cell inhibition (MCF-7 (breast cancer); MCF-7, c 1.00 μM, three replicates): 8.16% and 9.09%; cell inhibition (MCF-7 (breast cancer); MCF-7, c 2.00 μM, three replicates): 16.13% and 15.25%; cell inhibition (MCF-7 (breast cancer); MCF-7, c 4.00 μM, three replicates): 22.04% and 21.31%; cell inhibition (MCF-7 (breast cancer); MCF-7, c 8.00 μM, three replicates): 28.45% and 29.1%; cell inhibition (MCF-7 (breast cancer); MCF-7, c 16.00 μM, three replicates): 33.57% and 33.06%; cell inhibition (MCF-7 (breast cancer); MCF-7, c 32.00 μM, three replicates): 42.15% and 41.31%; cell inhibition (MCF-7 (breast cancer); MCF-7, c 64.00 μM, three replicates): 53.35% and 53.16%; cell inhibition (MCF-7 (breast cancer); MCF-7, c 128.00 μM, three replicates): 71.36% and 73.18%; cell inhibition (HepG2 (hepatoma cancer); HepG2, c 1.00 μM, three replicates): 3.46% and 5.11%; cell inhibition (HepG2 (hepatoma cancer); HepG2, c 2.00 μM, three replicates): 7.29% and 7.31%; cell inhibition (HepG2 (hepatoma cancer); HepG2, c 4.00 μM, three replicates): 9.34% and 11.19%; cell inhibition (HepG2 (hepatoma cancer); HepG2, c 8.00 μM, three replicates): 16.9% and 15.77%; cell inhibition (HepG2 (hepatoma cancer); HepG2, c 16.00 μM, three replicates): 25.3% and 27.11%; cell inhibition (HepG2 (hepatoma cancer); HepG2, c 32.00 μM, three replicates): 44.75% and 45.2%; cell inhibition (HepG2 (hepatoma cancer); HepG2, c 64.00 μM, three replicates): 77.47% and 75.51%; cell inhibition (HepG2 (hepatoma cancer); HepG2, c 128.00 μM, three replicates): 83.13% and 82.98%; inhibition at 1 µM (HepG2 (hepatoma cancer); Homo sapiens, HepG2, HepG2, c 1.00 μM, three replicates, read-out: cell inhibition): 3.33%; inhibition at 2 µM (HepG2 (hepatoma cancer); Homo sapiens, HepG2, HepG2, c 2.00 μM, three replicates, read-out: cell inhibition): 7.36%; inhibition at 4 µM (HepG2 (hepatoma cancer); Homo sapiens, HepG2, HepG2, c 4.00 μM, three replicates, read-out: cell inhibition): 9.89%; inhibition at 8 µM (HepG2 (hepatoma cancer); Homo sapiens, HepG2, HepG2, c 8.00 μM, three replicates, read-out: cell inhibition): 16.4%; inhibition at 16 µM (HepG2 (hepatoma cancer); Homo sapiens, HepG2, HepG2, c 16.00 μM, three replicates, read-out: cell inhibition): 27.6%; inhibition at 32 µM (HepG2 (hepatoma cancer); Homo sapiens, HepG2, HepG2, c 32.00 μM, three replicates, read-out: cell inhibition): 46.2%; inhibition at 64 µM (HepG2 (hepatoma cancer); Homo sapiens, HepG2, HepG2, c 64.00 μM, three replicates, read-out: cell inhibition): 77.2%; inhibition at 128 µM (HepG2 (hepatoma cancer); Homo sapiens, HepG2, HepG2, c 128.00 μM, three replicates, read-out: cell inhibition): 81.1%; IC50 (HepG2 (hepatoma cancer); Homo sapiens, HepG2, MTT, 72 h, mean ± SD (n = 3)): > 40 µM
